Where two headings read alike, the source gives them in different places.
How the values were obtained:
[1] = system: SARS-CoV-2 WT replicon in Huh7 cells; assay: microbe, parasite or virus in culture; type: cell-based; details: Severe acute respiratory syndrome coronavirus 2, Huh-7, 24 h
SARS-COV2 Mpro = SARS-COV2 Mpro (Severe acute respiratory syndrome coronavirus 2, UniProt P0DTD1); assay: COVID-19 (nCoV-2019, SARS-CoV2) Mpro enzymatic assay; type: biochemical
OC43 Mpro = OC43 Mpro (Human coronavirus OC43, UniProt P0C6X6); assay: OC43 Mpro enzymatic assay; type: biochemical, HCoV OC43; details: Table 3
HCoV 229E = HCoV 229E cytopathic effect (CPE) assay; type: cell-based; details: Table 4; CellTiter Glo; read-out: 229E CPE EC50
Procedure: (§1) Compounds were assayed using standard methods against multiple coronaviral strains, including HCoV 229E and OC43 strains. The antiviral activity of compounds was calculated based on the protection of the virus-induced CPE at each concentration normalized by the virus control.
(§2) Reagents and instruments used in this assay include luminescent cell viability assay kit CellTiter Glo (Promega) and Microplate Reader Synergy2 (BioTek).
Cytopathic effect (CPE) was measured by CellTiter Glo following the manufacturer's manual. The antiviral activity of compounds was calculated based on the protection of the virus-induced CPE at each concentration normalized by the virus control.
(§3) The cytotoxicity of compounds was assessed under the same conditions, but without virus infection, in parallel. Cell viability was measured with CellTiter Glo. The antiviral activity and cytotoxicity of compounds were expressed as % Inhibition and % Viability, respectively, and calculated with formulas.

229E Mpro = 229E Mpro (Human coronavirus 229E, UniProt P0C6X1); assay: 229E Mpro enzymatic assay; type: biochemical, HCoV 229E; details: Table 3
HCov OC43 = assay: HCoV OC43 cytopathic effect (CPE) assay; type: cell-based; details: Table 4, CellTiter Glo
Procedure: as §1, §2
Reference compound used was remdesivir; detection reagent: CellTiter Glo.) The CPE were measured by CellTiter Glo following the manufacturer's manual. The antiviral activity of compounds was calculated based on the protection of the virus-induced CPE at each concentration normalized by the virus control.
as §3

229E Mpro, sequence (P0C6X1 2966-3267): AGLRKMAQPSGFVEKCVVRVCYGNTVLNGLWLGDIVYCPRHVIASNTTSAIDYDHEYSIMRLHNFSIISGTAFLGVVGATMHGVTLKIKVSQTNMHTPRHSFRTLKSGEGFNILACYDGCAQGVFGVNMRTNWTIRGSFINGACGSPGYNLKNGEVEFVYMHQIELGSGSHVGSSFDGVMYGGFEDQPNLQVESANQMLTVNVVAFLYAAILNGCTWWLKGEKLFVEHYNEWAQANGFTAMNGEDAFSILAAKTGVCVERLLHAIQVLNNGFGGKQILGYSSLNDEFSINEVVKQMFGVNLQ
OC43 Mpro, sequence (P0C6X6 3247-3549): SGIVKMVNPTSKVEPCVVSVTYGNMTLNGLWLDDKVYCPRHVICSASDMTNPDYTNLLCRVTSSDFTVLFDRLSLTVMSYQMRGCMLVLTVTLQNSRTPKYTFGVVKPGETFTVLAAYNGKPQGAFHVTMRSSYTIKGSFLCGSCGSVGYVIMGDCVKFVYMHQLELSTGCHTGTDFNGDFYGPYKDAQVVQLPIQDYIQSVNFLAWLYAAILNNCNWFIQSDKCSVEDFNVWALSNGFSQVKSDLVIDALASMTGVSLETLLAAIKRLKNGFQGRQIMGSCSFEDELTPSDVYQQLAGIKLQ

In the case of `CC1(C)[C@@H]2[C@@H](C(=O)N[C@H](C#N)C[C@@H]3CCCNC3=O)N(C(=O)[C@@H](NC(=O)C(F)(F)F)C3CC3)C[C@@H]21` [Compound 377], the EC50 [1] is reported as < 2 µM.

With `N#C[C@H](C[C@@H]1CCNC1=O)NC(=O)[C@H](CC1CC1)NC(=O)[C@H](Cc1cccc2ccccc12)NC(=O)c1cnccn1` [Compound 119, N—((S)-1-(((S)-1-(((S)-1-cyano-2-((S)-2-oxopyrrolidin-3-yl)ethyl)amino)-3-cyclopropyl-1-oxopropan-2-yl)amino)-3-(naphthalen-1-yl)-1-oxopropan-2-yl)pyrazine-2-carboxamide] the IC50 (SARS-COV2 Mpro) was 2 to 10 µM, the IC50 (OC43 Mpro) was < 2 µM and the EC50 (HCoV 229E) was 10 to 30 µM. For the same compound, the IC50 (229E Mpro) was < 2 µM and the EC50 (HCov OC43; Betacoronavirus 1, OC43) was 2 to 10 µM.

`Cc1cc(C(=O)N[C@@H](Cc2cccc3ccccc23)C(=O)N[C@@H](CC2CC2)C(=O)N[C@H](C#N)C[C@@H]2CCNC2=O)no1` [Compound 121, N—((S)-1-(((S)-1-(((S)-1-cyano-2-((S)-2-oxopyrrolidin-3-yl)ethyl)amino)-3-cyclopropyl-1-oxopropan-2-yl)amino)-3-(naphthalen-1-yl)-1-oxopropan-2-yl)-5-methylisoxazole-3-carboxamide] was tested, and the IC50 (SARS-COV2 Mpro) was 2 to 10 µM, the IC50 (OC43 Mpro) was < 2 µM and the EC50 (HCoV 229E) was 2 to 10 µM. The IC50 (229E Mpro) was < 2 µM and the EC50 (HCov OC43; Betacoronavirus 1, OC43) was 2 to 10 µM.

For `N#C[C@H](C[C@@H]1CCNC1=O)NC(=O)C(CC1CCC(F)(F)CC1)NC(=O)[C@H](Cc1cccc2ccccc12)NC(=O)OCc1ccccc1` (stereo partly drawn) [Compound 128, benzylN-[(1S)-2-[[2-[[(1S)-1-cyano-2-[(3S)-2-oxopyrrolidin-3-yl]ethyl]amino]-1-[(4,4-difluorocyclohexyl)methyl]-2-oxo-ethyl]amino]-1-(1-naphthylmethyl)-2-oxo-ethyl]carbamate], the IC50 (SARS-COV2 Mpro) was < 2 µM, the IC50 (OC43 Mpro) was < 2 µM and the EC50 (HCoV 229E) was < 2 µM. The IC50 (229E Mpro) was < 2 µM and the EC50 (HCov OC43; Betacoronavirus 1, OC43) was < 2 µM.

`N#C[C@H](C[C@@H]1CCCNC1=O)NC(=O)[C@H](CC1CC1)NC(=O)[C@H](Cc1cccc2ccccc12)NC(=O)c1cnccn1` [Compound 115, N—((S)-1-(((S)-1-(((S)-1-cyano-2-((S)-2-oxopiperidin-3-yl)ethyl)amino)-3-cyclopropyl-1-oxopropan-2-yl)amino)-3-(naphthalen-1-yl)-1-oxopropan-2-yl)pyrazine-2-carboxamide] was tested, and the IC50 (SARS-COV2 Mpro) was 2 to 10 µM, the IC50 (OC43 Mpro) was < 2 µM and the EC50 (HCoV 229E) was 2 to 10 µM. For the same compound, the IC50 (229E Mpro) was < 2 µM and the EC50 (HCov OC43; Betacoronavirus 1, OC43) was 2 to 10 µM.

In the case of `Cc1cc(C(=O)N[C@@H](Cc2ccc(F)cc2)C(=O)N[C@@H](CC(C)C)C(=O)N[C@H](C#N)C[C@@H]2CCCNC2=O)no1` [Compound 113, N—((S)-1-(((S)-1-(((S)-1-cyano-2-((S)-2-oxopiperidin-3-yl)ethyl)amino)-4-methyl-1-oxopentan-2-yl)amino)-3-(4-tluorophenyl)-1-oxopropan-2-yl)-5-methylisoxazole-3-carboxamide], the IC50 (SARS-COV2 Mpro) is reported as < 2 µM, the IC50 (OC43 Mpro) is reported as < 2 µM and the EC50 (HCoV 229E) is reported as 2 to 10 µM. The IC50 (229E Mpro) was < 2 µM and the EC50 (HCov OC43; Betacoronavirus 1, OC43) was 2 to 10 µM.

For `CC(C)(C)[C@H](NC(=O)c1cnccn1)C(=O)N1C[C@H]2[C@@H]([C@H]1C(=O)N[C@H](C#N)C[C@@H]1CCNC1=O)C2(C)C` (single isomer, unassigned) [101 Isomer 2], the IC50 (SARS-COV2 Mpro; read-out: COVID-19 Mpro IC50, Table 3) was < 2 µM, the IC50 (OC43 Mpro) was < 2 µM and the EC50 (HCoV 229E) was 2 to 10 µM. For the same compound, the IC50 (229E Mpro) was < 2 µM and the EC50 (HCov OC43) was < 2 µM.

In the case of `N#C[C@H](C[C@@H]1CCCNC1=O)NC(=O)[C@H](CC1CC1)NC(=O)[C@H](Cc1cccc2ccccc12)NC(=O)OCc1ccccc1` [Compound 116, Benzyl((S)-1-(((S)-1-(((S)-1-cyano-2-((S)-2-oxopiperidin-3-yl)ethyl)amino)-3-cyclopropyl-1-oxopropan-2-yl)amino)-3-(naphthalen-1-yl)-1-oxopropan-2-yl)carbamate], the IC50 (SARS-COV2 Mpro) is reported as < 2 µM, the IC50 (OC43 Mpro) is reported as < 2 µM and the EC50 (HCoV 229E) is reported as 2 to 10 µM. The IC50 (229E Mpro) was < 2 µM and the EC50 (HCov OC43; Betacoronavirus 1, OC43) was < 2 µM.

`CC1(C)C[C@@H](C[C@@H](C#N)NC(=O)[C@H](CC2CC2)NC(=O)[C@H](Cc2cccc3ccccc23)NC(=O)c2cnccn2)C(=O)N1` [Compound 118, N—((S)-1-(((S)-1-(((S)-1-cyano-2-((R)-5,5-dimethyl-2-oxopyrrolidin-3-yl)ethyl)amino)-3-cyclopropyl-1-oxopropan-2-yl)amino)-3-(naphthalen-1-yl)-1-oxopropan-2-yl)pyrazine-2-carboxamide] was tested, and the IC50 (SARS-COV2 Mpro) was 2 to 10 µM, the IC50 (OC43 Mpro) was < 2 µM and the EC50 (HCoV 229E) was 2 to 10 µM. For the same compound, the IC50 (229E Mpro) was < 2 µM and the EC50 (HCov OC43; Betacoronavirus 1, OC43) was 2 to 10 µM.

`Cc1cc(C(=O)N[C@@H](Cc2cccc3ccccc23)C(=O)N[C@@H](CC2CC2)C(=O)N[C@H](C#N)C[C@@H]2CC(C)(C)NC2=O)no1` [Compound 120, N—((S)-1-(((S)-1-(((S)-1-cyano-2-((R)-5,5-dimethyl-2-oxopyrrolidin-3-yl)ethyl)amino)-3-cyclopropyl-1-oxopropan-2-yl)amino)-3-(naphthalen-1-yl)-1-oxopropan-2-yl)-5-methylisoxazole-3-carboxamide] was tested, and the IC50 (SARS-COV2 Mpro) was 2 to 10 µM, the IC50 (OC43 Mpro) was < 2 µM and the EC50 (HCoV 229E) was 2 to 10 µM. The IC50 (229E Mpro) was < 2 µM and the EC50 (HCov OC43; Betacoronavirus 1, OC43) was < 2 µM.

`C[C@@H](OC1CC1)[C@H](NC(=O)C(F)(F)F)C(=O)N1C[C@H]2[C@@H]([C@H]1C(=O)N[C@H](C#N)C[C@@H]1CCCNC1=O)C2(C)C` [Compound 378] was tested, and the EC50 [1] was < 2 µM.

With `N#C[C@H](C[C@@H]1CCCNC1=O)NC(=O)[C@H](CC1CC1)NC(=O)[C@H](Cc1ccc(F)cc1)NC(=O)OCc1ccccc1` [Compound 123] the IC50 (SARS-COV2 Mpro) was 10 to 30 µM, the IC50 (OC43 Mpro) was 2 to 10 µM and the EC50 (HCoV 229E) was 10 to 30 µM. The IC50 (229E Mpro) was < 2 µM and the EC50 (HCov OC43; Betacoronavirus 1, OC43) was 10 to 30 µM.

For `CC(C)(C)[C@H](NC(=O)c1cnccn1)C(=O)N1C[C@H]2[C@@H]([C@H]1C(=O)N[C@H](C#N)C[C@@H]1CCNC1=O)C2(C)C` (single isomer, unassigned) [101 Isomer 1], the IC50 (SARS-COV2 Mpro) was < 2 µM, the IC50 (OC43 Mpro) was < 2 µM and the EC50 (HCoV 229E) was 2 to 10 µM. For the same compound, the IC50 (229E Mpro) was < 2 µM and the EC50 (HCov OC43; Betacoronavirus 1, OC43) was < 2 µM.

With `C[C@@H](OC1(C)CCC1)[C@H](NC(=O)C(F)(F)F)C(=O)N1C[C@H]2[C@@H]([C@H]1C(=O)N[C@H](C#N)C[C@@H]1CCCNC1=O)C2(C)C` [Compound 376] the EC50 [1] was < 2 µM.
